Several values for one entry are separate records, joined by “and”; a condition that tells them apart may be missing. Equal entries are not always repeated. Toxic doses and inconclusive results are not listed.
Test system: AK4 lymphoid leukemia ip, C3AKF1 mice, survival
Experiment: NCI In Vivo Anticancer Drug Screen. Data for tumor model AK4 Lymphoid Leukemia (intraperitoneal) in C3AKF1 (CHKRF1) mice
Conditions: endpoint: median survival time, higher = longer survival
Procedure: The antitumor activity of compounds was measured in mice bearing transplantable tumors. Survival or tumor size were measured and the results are expressed as the measurement made in the treated group (T) divided by the measurement made in the vehicle treated control group (C). The tumor model used in this assay is AK4 Lymphoid Leukemia (intraperitoneal) in C3AKF1 (CHKRF1) mice

[1] = dose: 32.0 mg/kg/injection, schedule: Q01DX010 (ip), vehicle: saline
[2] = dose: 64.0 mg/kg/injection, schedule: Q01DX010 (ip), vehicle: saline
[3] = dose: 128.0 mg/kg/injection, schedule: Q01DX010 (ip), vehicle: saline
[4] = dose: 1.0 mg/kg/injection, schedule: Q01DX010 (ip), vehicle: saline
[5] = dose: 4.0 mg/kg/injection, schedule: Q01DX010 (ip), vehicle: saline
[6] = dose: 5.0 mg/kg/injection, schedule: Q01DX010 (ip), vehicle: saline
[7] = dose: 10.0 mg/kg/injection, schedule: Q01DX010 (ip), vehicle: saline
[8] = dose: 20.0 mg/kg/injection, schedule: Q01DX010 (ip), vehicle: saline
[9] = dose: 50.0 mg/kg/injection, schedule: Q01DX010 (ip), vehicle: saline
[10] = dose: 100.0 mg/kg/injection, schedule: Q01DX010 (ip), vehicle: saline
[11] = dose: 200.0 mg/kg/injection, schedule: Q01DX010 (ip), vehicle: saline
[12] = dose: 1.25 mg/kg/injection, schedule: Q01DX010 (ip), vehicle: saline
[13] = dose: 2.5 mg/kg/injection, schedule: Q01DX010 (ip), vehicle: saline
[14] = dose: 25.0 mg/kg/injection, schedule: Q01DX010 (ip), vehicle: saline

Compound: O=c1cn[nH]c(=O)[nH]1
- T/C (dose: 32.0 mg/kg/injection, schedule: Q01DX006 (iv), vehicle: saline): 88 % of control
- T/C [1]: 88 % of control
- T/C (dose: 32.0 mg/kg/injection, schedule: Q01DX010 (sc), vehicle: saline): 88 % of control
- T/C (dose: 32.0 mg/kg/injection, schedule: Q02DX005 (im), vehicle: saline): 94 % of control
- T/C (dose: 64.0 mg/kg/injection, schedule: Q01DX006 (iv), vehicle: saline): 100 % of control
- T/C [2]: 88 % of control
- T/C (dose: 64.0 mg/kg/injection, schedule: Q01DX010 (sc), vehicle: saline): 88 % of control
- T/C (dose: 64.0 mg/kg/injection, schedule: Q02DX005 (im), vehicle: saline): 105 % of control
- T/C (dose: 100.0 mg/kg/injection, schedule: Q03DX Z (ip), vehicle: saline): 88 % of control
- T/C (dose: 125.0 mg/kg/injection, schedule: Q01DX001 (ip), vehicle: saline): 88 % of control and 94 % of control
- T/C (dose: 125.0 mg/kg/injection, schedule: Q01DX010 (oral), vehicle: saline): 100 % of control
- T/C (dose: 125.0 mg/kg/injection, schedule: Q07DX Z (ip), vehicle: saline): 111 % of control
- T/C (dose: 128.0 mg/kg/injection, schedule: Q01DX006 (iv), vehicle: saline): 88 % of control
- T/C [3]: 88 % of control
- T/C (dose: 128.0 mg/kg/injection, schedule: Q01DX010 (sc), vehicle: saline): 88 % of control
- T/C (dose: 128.0 mg/kg/injection, schedule: Q02DX005 (im), vehicle: saline): 122 % of control
- T/C (dose: 200.0 mg/kg/injection, schedule: Q03DX Z (ip), vehicle: saline): 100 % of control
- T/C (dose: 250.0 mg/kg/injection, schedule: Q01DX001 (ip), vehicle: saline): 94 % of control and 100 % of control
- T/C (dose: 250.0 mg/kg/injection, schedule: Q01DX010 (oral), vehicle: saline): 94 % of control
- T/C (dose: 250.0 mg/kg/injection, schedule: Q07DX Z (ip), vehicle: saline): 88 % of control
- T/C (dose: 256.0 mg/kg/injection, schedule: Q01DX006 (iv), vehicle: saline): 105 % of control
- T/C (dose: 256.0 mg/kg/injection, schedule: Q01DX010 (ip), vehicle: saline): 100 % of control
- T/C (dose: 256.0 mg/kg/injection, schedule: Q01DX010 (sc), vehicle: saline): 105 % of control
- T/C (dose: 256.0 mg/kg/injection, schedule: Q02DX005 (im), vehicle: saline): 88 % of control
- T/C (dose: 400.0 mg/kg/injection, schedule: Q03DX Z (ip), vehicle: saline): 94 % of control
- T/C (dose: 500.0 mg/kg/injection, schedule: Q01DX001 (ip), vehicle: saline): 94 % of control and 105 % of control
- T/C (dose: 500.0 mg/kg/injection, schedule: Q01DX010 (oral), vehicle: saline): 111 % of control
- T/C (dose: 500.0 mg/kg/injection, schedule: Q07DX Z (ip), vehicle: saline): 88 % of control
- T/C (dose: 800.0 mg/kg/injection, schedule: Q03DX Z (ip), vehicle: saline): 94 % of control
- T/C (dose: 1000.0 mg/kg/injection, schedule: Q01DX001 (ip), vehicle: saline): 100 % of control and 105 % of control
- T/C (dose: 1000.0 mg/kg/injection, schedule: Q01DX010 (oral), vehicle: saline): 94 % of control
- T/C (dose: 1000.0 mg/kg/injection, schedule: Q07DX Z (ip), vehicle: saline): 100 % of control

Compound: CCN(CC)c1ccc2cc3ccc(=[N+](CC)CC)cc-3oc2c1
- T/C [4]: 100 % of control
- T/C (dose: 2.0 mg/kg/injection, schedule: Q01DX010 (ip), vehicle: saline): 100 % of control
- T/C [5]: 100 % of control
- T/C (dose: 8.0 mg/kg/injection, schedule: Q01DX010 (ip), vehicle: saline): 100 % of control

Compound: NC(=O)N(CCCl)N=O
- T/C (dose: 0.5 mg/kg/injection, schedule: Q01DX010 (ip), vehicle: saline): 162 % of control
- T/C [4]: 168 % of control and 200 % of control
- T/C [5]: 87 % of control

Compound: CCCCn1cnc2c(=S)nc[nH]c21
- T/C (dose: 16.0 mg/kg/injection, schedule: Q01DX010 (ip), vehicle: saline): 100 % of control
- T/C [1]: 90 % of control and 122 % of control
- T/C [2]: 90 % of control and 111 % of control
- T/C [3]: 94 % of control and 100 % of control

Compound: O=NN(CCCl)C(=O)NCCCl
- T/C (dose: 6.25 mg/kg/injection, schedule: Q01DX010 (ip), vehicle: saline): 168 % of control and 185 % of control
- T/C (dose: 12.5 mg/kg/injection, schedule: Q01DX010 (ip), vehicle: saline): 160 % of control and 181 % of control

Compound: C[C@@H]1C[C@@H]([C@H](O)CC2CC(=O)NC(=O)C2)C(=O)[C@@H](C)C1
- T/C [6]: 100 % of control and 107 % of control
- T/C [7]: 87 % of control and 121 % of control
- T/C [8]: 93 % of control and 114 % of control

Compound: Nc1nc2n[nH]nc2c(=O)[nH]1
- T/C (dose: 25.0 mg/kg/injection, schedule: Q01DX010 (ip), vehicle: alkali diluted with saline): 100 % of control and 115 % of control
- T/C (dose: 50.0 mg/kg/injection, schedule: Q01DX010 (ip), vehicle: alkali diluted with saline): 105 % of control and 120 % of control
- T/C (dose: 100.0 mg/kg/injection, schedule: Q01DX010 (ip), vehicle: alkali diluted with saline): 100 % of control and 110 % of control
- T/C (dose: 200.0 mg/kg/injection, schedule: Q01DX010 (ip), vehicle: alkali diluted with saline): 100 % of control and 110 % of control

Compound: CC(=O)Nc1ccc2nc3ccc(NC(C)=O)cc3[n+](-c3ccccc3)c2c1
- T/C [9]: 117 % of control
- T/C [10]: 105 % of control
- T/C [11]: 117 % of control
- T/C (dose: 400.0 mg/kg/injection, schedule: Q01DX010 (ip), vehicle: saline): 105 % of control

Compound: CN(C)c1ccc(/C=C\c2ccnc3ccccc23)cc1
- T/C (dose: 1.5 mg/kg/injection, schedule: Q01DX010 (ip), vehicle: saline): 100 % of control
- T/C (dose: 3.0 mg/kg/injection, schedule: Q01DX010 (ip), vehicle: saline): 100 % of control
- T/C (dose: 6.0 mg/kg/injection, schedule: Q01DX010 (ip), vehicle: saline): 100 % of control
- T/C (dose: 12.0 mg/kg/injection, schedule: Q01DX010 (ip), vehicle: saline): 100 % of control

Compound: NC(=O)c1ccc(NC(=O)CCC(=O)Nc2ccc(C(N)=O)cn2)nc1
- T/C (dose: 0.63 mg/kg/injection, schedule: Q01DX010 (ip), vehicle: saline): 100 % of control
- T/C [12]: 110 % of control
- T/C [13]: 110 % of control
- T/C [6]: 100 % of control

Compound: O=c1c(O)cccc2cc(O)c(O)c(O)c12
- T/C [14]: 94 % of control

Compound: C[C@]12C=CC(=O)C=C1CC[C@@H]1[C@@H]2C(=O)C[C@@]2(C)[C@H]1CC[C@]2(O)C(=O)CO
- T/C (dose: 6.25 mg/kg/injection, schedule: Q01DX010 (sc), vehicle: steriod suspending solution): 100 % of control
- T/C (dose: 12.5 mg/kg/injection, schedule: Q01DX010 (sc), vehicle: steriod suspending solution): 100 % of control and 87 % of control
- T/C (dose: 12.5 mg/kg/injection, schedule: Q01DX Z (sc), vehicle: steriod suspending solution): 93 % of control
- T/C (dose: 25.0 mg/kg/injection, schedule: Q01DX010 (sc), vehicle: steriod suspending solution): 100 % of control and 87 % of control
- T/C (dose: 25.0 mg/kg/injection, schedule: Q01DX Z (sc), vehicle: steriod suspending solution): 93 % of control
- T/C (dose: 50.0 mg/kg/injection, schedule: Q01DX010 (sc), vehicle: steriod suspending solution): 90 % of control and 100 % of control (2×)
- T/C (dose: 50.0 mg/kg/injection, schedule: Q01DX Z (sc), vehicle: steriod suspending solution): 96 % of control and 100 % of control
- T/C (dose: 100.0 mg/kg/injection, schedule: Q01DX010 (sc), vehicle: steriod suspending solution): 90 % of control and 118 % of control
- T/C (dose: 100.0 mg/kg/injection, schedule: Q01DX Z (sc), vehicle: steriod suspending solution): 96 % of control
- T/C (dose: 200.0 mg/kg/injection, schedule: Q01DX010 (sc), vehicle: steriod suspending solution): 105 % of control and 118 % of control
- T/C (dose: 200.0 mg/kg/injection, schedule: Q01DX Z (sc), vehicle: steriod suspending solution): 96 % of control and 120 % of control

Compound: O=C(O)c1[nH]c(=O)[nH]c(=O)c1F
- T/C [12]: 105 % of control
- T/C [13]: 122 % of control
- T/C [7]: 155 % of control and 205 % of control
- T/C [8]: 111 % of control

Compound: O[C@H](CN1CC1)[C@@H](O)CN1CC1
- T/C (dose: 250.0 micrograms/kg/injection, schedule: Q01DX010 (ip), vehicle: saline): 164 % of control
- T/C (dose: 1000.0 micrograms/kg/injection, schedule: Q01DX010 (ip), vehicle: saline): 105 % of control

Compound: CSc1ncnc2nc[nH]c12
- T/C [14]: 100 % of control
- T/C [9]: 100 % of control
- T/C [10]: 100 % of control
- T/C [11]: 100 % of control

From PubChem BioAssay AID236 (DTP/NCI, 2004)
